Key:
[1] = relative permittivity at various frequencies (dimensionless); conditions: Liquid, Frequency=1 MHz, Parallel plate capacitor
[2] = 101.33 kPa, Liquid, Vibrating tube method
[3] = relative permittivity at various frequencies (dimensionless); xn = mol fraction of the nth substance listed; conditions: Liquid, Frequency=1 MHz, Parallel plate capacitor, x1 = 1
[4] = xn = mol fraction of the nth substance listed; conditions: Liquid, Vibrating tube method, x1 = 1

COCCOC [1,2-dimethoxyethane]
[1], 96.5 kPa
Conditions | relative permittivity
288.15 K | 7.41
298.15 K | 7.07
308.15 K | 6.75

[2]
Conditions | mass density [kg/m3]
288.15 K | 872.06
298.15 K | 861.17
308.15 K | 850.13

C1CCCCC1 [cyclohexane]
[1], 96.6 kPa
Conditions | relative permittivity
288.15 K | 2.04
298.15 K | 2.03
308.15 K | 2.02

[2]
Conditions | mass density [kg/m3]
288.15 K | 783.29
298.15 K | 773.86
308.15 K | 764.38

C1CCCCC1 [cyclohexane] + COCCOC
96.6 kPa
Conditions | mass density, 288.15 K [kg/m3] | mass density, 298.15 K [kg/m3] | mass density, 308.15 K [kg/m3] | relative permittivity, 288.15 K | relative permittivity, 298.15 K | relative permittivity, 308.15 K
[3] | – | – | – | 2.04 | 2.03 | 2.02
[4] | 783.29 | 773.86 | 764.38 | – | – | –

CCCCCCCCCCCC [dodecane]
[1], 97 kPa
Conditions | relative permittivity
288.15 K | 2.04
298.15 K | 2.02
308.15 K | 2.01

[2]
Conditions | mass density [kg/m3]
288.15 K | 752.44
298.15 K | 745.29
308.15 K | 737.93

CCCCCCCCCCCC [dodecane] + COCCOC
97 kPa
Conditions | mass density, 288.15 K [kg/m3] | mass density, 298.15 K [kg/m3] | mass density, 308.15 K [kg/m3] | relative permittivity, 288.15 K | relative permittivity, 298.15 K | relative permittivity, 308.15 K
[3] | – | – | – | 2.04 | 2.02 | 2.01
[4] | 752.44 | 745.29 | 737.93 | – | – | –

CCCCCC [hexane]
[1], 95.2 kPa
Conditions | relative permittivity
288.15 K | 1.91
298.15 K | 1.89
308.15 K | 1.88

[2]
Conditions | mass density [kg/m3]
288.15 K | 664.13
298.15 K | 655.14
308.15 K | 646.1

CCCCCC [hexane] + COCCOC
95.2 kPa
Conditions | mass density, 288.15 K [kg/m3] | mass density, 298.15 K [kg/m3] | mass density, 308.15 K [kg/m3] | relative permittivity, 288.15 K | relative permittivity, 298.15 K | relative permittivity, 308.15 K
[3] | – | – | – | 1.91 | 1.89 | 1.88
[4] | 664.13 | 655.14 | 646.1 | – | – | –

CCCCCCCC [octane]
[1], 97.1 kPa
Conditions | relative permittivity
288.15 K | 1.97
298.15 K | 1.96
308.15 K | 1.94

[2]
Conditions | mass density [kg/m3]
288.15 K | 706.6
298.15 K | 698.58
308.15 K | 690.48

CCCCCCCC [octane] + COCCOC
97.1 kPa
Conditions | mass density, 288.15 K [kg/m3] | mass density, 298.15 K [kg/m3] | mass density, 308.15 K [kg/m3] | relative permittivity, 288.15 K | relative permittivity, 298.15 K | relative permittivity, 308.15 K
[3] | – | – | – | 1.97 | 1.96 | 1.94
[4] | 706.6 | 698.58 | 690.48 | – | – | –

From the NIST ThermoML archive (doi:10.1016/j.jct.2015.05.006)
